Results on two molecules are retold here after ChEMBL document CHEMBL4196079, “Molecular interaction of novel benzothiazolyl triazolium analogues with calf thymus DNA and HSA-their biological investigation as potent antimicrobial agents” (Eur J Med Chem, 2018).

A word on the MIC: it is the smallest concentration in the dilution series that meets the test's criterion for growth inhibition. As a reminder, the IC50 is the point on the concentration scale where inhibition reaches its midpoint.

In brackets after ≈: the same amount, converted by molar mass. Where only a bound is given, the exact number is not on record here.

Series [1] relates to Staphylococcus aureus. The experiment in a line: Antibacterial activity against methicillin-resistant Staphylococcus aureus N315 after 24 hrs by NCCLS micro broth dilution method. It is filed as functional. To be noted: N315, 24 h. In general terms: Dilution methods test growth across graded concentrations, often in twofold steps.
Series [2] has as its system Staphylococcus aureus. The experiment in a line: Antibacterial activity against Staphylococcus aureus ATCC 25923 after 24 hrs by NCCLS micro broth dilution method. The following applies: ATCC 25923, 24 h. In kind it is functional.
The test system of series [3] is Bacillus subtilis. The experiment in a line: Antibacterial activity against Bacillus subtilis ATCC 21216 after 24 hrs by NCCLS micro broth dilution method. In kind it is functional. The following applies: ATCC 21216, 24 h.
Series [4] relates to Micrococcus luteus. The experiment in a line: Antibacterial activity against Micrococcus luteus ATCC 4698 after 24 hrs by micro broth dilution method. To be noted: ATCC 4698, 24 h. In kind it is functional.
Series [5] deals with Escherichia coli. The experiment in a line: Antibacterial activity against Escherichia coli DH52 after 24 hrs by NCCLS micro broth dilution method. It is filed as functional. The following applies: DH52, 24 h.
For series [6], the system named is Escherichia coli. Description: Antibacterial activity against Escherichia coli JM109 after 24 hrs by NCCLS micro broth dilution method. In kind it is functional. To be noted: JM109, 24 h.
For series [7], the system named is Shigella dysenteriae. The experiment in a line: Antibacterial activity against Shigella dysenteriae after 24 hrs by NCCLS micro broth dilution method. It is filed as functional.
Series [8] relates to Pseudomonas aeruginosa. The experiment in a line: Antibacterial activity against Pseudomonas aeruginosa ATCC 27853 after 24 hrs by NCCLS micro broth dilution method. In kind it is functional. To be noted: ATCC 27853, 24 h.
Series [9] relates to Salmonella typhi. The experiment in a line: Antibacterial activity against Salmonella typhi after 24 hrs by NCCLS micro broth dilution method. To be noted: Salmonella enterica. In kind it is functional, Salmonella enterica subsp. enterica serovar Typhi.
Series [10] deals with Bacillus. Description: Antibacterial activity against Bacillus proteus ATCC 13315 after 24 hrs by NCCLS micro broth dilution method. The following applies: ATCC 13315, 24 h. In kind it is functional.
Series [11] deals with Candida albicans. The experiment in a line: Antifungal activity against Candida albicans ATCC 76615 after 24 hrs by NCCLS micro broth dilution method. It is filed as functional. The following applies: ATCC 76615, 24 h.
Series [12] has as its system Pichia norvegensis. Description: Antifungal activity against Candida mycoderma after 24 hrs by NCCLS micro broth dilution method. It is filed as functional.
Series [13] concerns Cyberlindnera jadinii. Description: Antifungal activity against Candida utilis after 24 hrs by NCCLS micro broth dilution method. It is filed as functional. The following applies: Williopsis jadinii.
Series [14] concerns Aspergillus flavus. Description: Antifungal activity against Aspergillus flavus after 24 hrs by NCCLS micro broth dilution method. In kind it is functional.
Series [15] concerns Saccharomyces cerevisiae. Description: Antifungal activity against Saccharomyces cerevisiae after 24 hrs by NCCLS micro broth dilution method. It is filed as functional.
In series [16] the test system is MDA-MB-231. The experiment in a line: Cytotoxicity against human MDA-MB-231 cells after 24 hrs by MTT assay. It is filed as cell-based. To be noted: MDA-MB-231, 24 h. A general note: Tetrazolium dyes change colour on reduction, which living cells bring about.
The test system of series [17] is Calf thymus DNA. Description: Inhibition of neutral red binding to calf thymus DNA by UV-Visible absorption spectroscopy. In kind it is nucleic-acid assay. To be noted: Bos taurus.
Series [18] addresses T1, Albumin (Homo sapiens, UniProt P02768). Description: Binding affinity to HSA assessed as Stern-Volmer quenching constant at pH 7.3 at 286 K by fluorescence assay. In kind it is ADME. To be noted: isolated protein.
The target in series [19] is T1, Albumin. Description: Binding affinity to HSA assessed as Stern-Volmer quenching constant at pH 7.3 at 303 K by fluorescence assay. In kind it is ADME. The following applies: isolated protein.
Series [20] has as its target T1, Albumin. The experiment in a line: Binding affinity to HSA assessed as Stern-Volmer quenching constant at pH 7.3 at 310 K by fluorescence assay. In kind it is ADME. To be noted: isolated protein.
Series [21] concerns the target T1, Albumin. Description: Binding affinity to HSA assessed as biomolecular quenching rate constant at pH 7.3 at 286 K by fluorescence assay. It is filed as ADME. The following applies: isolated protein.
The target of series [22] is T1, Albumin. The experiment in a line: Binding affinity to HSA assessed as biomolecular quenching rate constant at pH 7.3 at 303 K by fluorescence assay. To be noted: isolated protein. It is filed as ADME.
Series [23] deals with T1, Albumin. Description: Binding affinity to HSA assessed as biomolecular quenching rate constant at pH 7.3 at 310 K by fluorescence assay. In kind it is ADME. The following applies: isolated protein.
The target of series [24] is T1, Albumin. Description: Binding affinity to HSA assessed as change in enthalpy at 286 K by Van't hoff plot analysis. It is filed as ADME. The following applies: isolated protein.
The target of series [25] is T1, Albumin. The experiment in a line: Binding affinity to HSA assessed as change in free energy at 286 K by Van't hoff plot analysis. In kind it is ADME. The following applies: isolated protein.
Series [26] concerns the target T1, Albumin. The experiment in a line: Binding affinity to HSA assessed as change in free energy at 303 K by Van't hoff plot analysis. It is filed as ADME. To be noted: isolated protein.
Series [27] addresses T1, Albumin. Description: Binding affinity to HSA assessed as change in free energy at 310 K by Van't hoff plot analysis. In kind it is ADME. To be noted: isolated protein.
Series [28] deals with T1, Albumin. Description: Binding affinity to HSA assessed as change in entropy at 286 K by Van't hoff plot analysis. In kind it is ADME. The following applies: isolated protein.

T1 sequence (P02768 whole entry): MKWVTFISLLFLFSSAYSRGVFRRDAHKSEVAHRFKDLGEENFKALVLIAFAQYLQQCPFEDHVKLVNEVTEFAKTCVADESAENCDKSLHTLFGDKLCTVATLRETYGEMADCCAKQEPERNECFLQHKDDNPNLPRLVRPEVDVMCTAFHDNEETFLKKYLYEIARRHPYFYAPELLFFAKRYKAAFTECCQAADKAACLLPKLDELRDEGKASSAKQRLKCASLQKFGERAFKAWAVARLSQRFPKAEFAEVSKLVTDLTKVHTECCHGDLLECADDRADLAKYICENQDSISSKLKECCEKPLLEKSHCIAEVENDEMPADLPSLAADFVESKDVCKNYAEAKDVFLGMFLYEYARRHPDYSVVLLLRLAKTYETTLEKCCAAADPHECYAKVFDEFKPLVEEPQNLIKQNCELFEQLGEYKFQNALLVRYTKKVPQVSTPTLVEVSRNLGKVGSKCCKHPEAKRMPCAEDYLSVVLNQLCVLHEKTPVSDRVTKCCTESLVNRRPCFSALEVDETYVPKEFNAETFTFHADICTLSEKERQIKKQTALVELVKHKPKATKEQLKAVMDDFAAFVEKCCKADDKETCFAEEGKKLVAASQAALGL

For the molecule `CCOc1ccc2c(c1)sc1nc(-c3ccccc3)c(COCc3cn(Cc4cccc(F)c4)nn3)n12`, the MIC is 16 µg/mL (≈ 31.2 µM) in series [1]; 128 µg/mL (≈ 249 µM) in series [2]; 128 µg/mL (≈ 249 µM) in [3]; 128 µg/mL (≈ 249 µM) in series [4]; 16 µg/mL (≈ 31.2 µM) in series [5]; 128 µg/mL (≈ 249 µM) in series [6]. The MIC in [7] is 128 µg/mL (≈ 249 µM); in [8], 64 µg/mL (≈ 125 µM); in [9], 32 µg/mL (≈ 62.3 µM); in series [10], 64 µg/mL (≈ 125 µM); in series [11], 8 µg/mL (≈ 15.6 µM); in [12] it was 16 µg/mL (≈ 31.2 µM). Besides, the figures for the MIC in series [13], in series [14] and in [15] were 16 µg/mL (≈ 31.2 µM), 64 µg/mL (≈ 125 µM) and 32 µg/mL (≈ 62.3 µM), respectively. This molecule registered an IC50 in [16] below 100 µg/mL.
`CCOc1ccc2c(c1)sc1nc(-c3ccccc3)c(COCc3cn(Cc4ccc(Cl)c(Cl)c4)nn3)n12`: the MIC is 16 µg/mL (≈ 28.3 µM) in series [1]; 16 µg/mL (≈ 28.3 µM) in [2]; 4 µg/mL (≈ 7.09 µM) in series [3]; 2 µg/mL (≈ 3.54 µM) in series [4]; 32 µg/mL (≈ 56.7 µM) in [5]; 1 µg/mL (≈ 1.77 µM) in [6]. Besides, the MIC in series [7] came to 16 µg/mL (≈ 28.3 µM); in series [8] it was 4 µg/mL (≈ 7.09 µM); in series [9] it was 8 µg/mL (≈ 14.2 µM); in series [10], 8 µg/mL (≈ 14.2 µM); in [11], 8 µg/mL (≈ 14.2 µM); in [12], 4 µg/mL (≈ 7.09 µM). Further, the results for the MIC in series [13], in series [14] and in series [15] were 2 µg/mL (≈ 3.54 µM), 64 µg/mL (≈ 113 µM) and 16 µg/mL (≈ 28.3 µM), respectively. Further, the inhibition entry in series [17] is “Dose-dependent effect”. Also, the values for the KSV in series [18], in series [19] and in series [20] were 4.04 ×10⁴ L/mol, 3.54 ×10⁴ L/mol and 3.42 ×10⁴ L/mol, respectively. In addition, the Kq in series [21] worked out at 6.36 ×10¹² L/mol/s; in series [22], 5.53 ×10¹² L/mol/s; in series [23], 5.34 ×10¹² L/mol/s. In [24], the deltaH is -1.54 kcal/mol. Further, the deltaG is -5.9113 kcal/mol in [25], -5.9183 kcal/mol in [26] and -6.0194 kcal/mol in [27]. The deltaS in series [28] is on record as 60.5 J/mol.K.
